# PubChem BioAssay (NCI)
# Where “and” joins values, the source holds several entries; their conditions need not be identical. Equal entries are not always repeated.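 Growth conditions: 96-well plates. Treatment: test compound, 48 hours, 5 concentrations. Analysis: linear interpolation between bracketing concentrations; unreached endpoints set to highest concentration. Here, GI50 denotes the concentration required for 50% inhibition of growth. TGI: concentration producing complete growth inhibition.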
# Key:
# Assay in all cases: inhibition of tumour cell growth, NCI panel, 48 h
# 786-0 renal = tested on: 786-0 renal
# A549 NSCLC = tested on: A549 NSCLC
# ACHN renal = tested on: ACHN renal
# CCRF-CEM leukemia = tested on: CCRF-CEM leukemia
# COLO 205 colon = tested on: COLO 205 colon
# DLD-1 colon = tested on: DLD-1 colon
# DMS 273 small cell lung = tested on: DMS 273 small cell lung
# EKVX NSCLC = tested on: EKVX NSCLC
# HCC-2998 colon = tested on: HCC-2998 colon
# HCT-116 colon = tested on: HCT-116 colon
# HCT-15 colon = tested on: HCT-15 colon
# HL-60(TB) leukemia = tested on: HL-60(TB) leukemia
# HOP-18 NSCLC = tested on: HOP-18 NSCLC
# HOP-92 NSCLC = tested on: HOP-92 NSCLC
# HT29 colon = tested on: HT29 colon
# IGROV1 ovarian = tested on: IGROV1 ovarian
# K-562 leukemia = tested on: K-562 leukemia
# KM12 colon = tested on: KM12 colon
# KM20L2 colon = tested on: KM20L2 colon
# LOX IMVI melanoma = tested on: LOX IMVI melanoma
# LXFL 529 NSCLC = tested on: LXFL 529 NSCLC
# M14 melanoma = tested on: M14 melanoma
# M19-MEL melanoma = tested on: M19-MEL melanoma
# MALME-3M melanoma = tested on: MALME-3M melanoma
# MOLT-4 leukemia = tested on: MOLT-4 leukemia
# NCI-H226 lung = tested on: NCI-H226 lung
# NCI-H23 lung = tested on: NCI-H23 lung
# NCI-H460 lung = tested on: NCI-H460 lung
# NCI-H522 lung = tested on: NCI-H522 lung
# OVCAR-3 ovarian = tested on: OVCAR-3 ovarian
# OVCAR-4 ovarian = tested on: OVCAR-4 ovarian
# OVCAR-5 ovarian = tested on: OVCAR-5 ovarian
# OVCAR-8 ovarian = tested on: OVCAR-8 ovarian
# RPMI-8226 leukemia = tested on: RPMI-8226 leukemia
# RXF 393 renal = tested on: RXF 393 renal
# SF-268 CNS = tested on: SF-268 CNS
# SF-295 CNS = tested on: SF-295 CNS
# SF-539 CNS = tested on: SF-539 CNS
# SK-MEL-2 melanoma = tested on: SK-MEL-2 melanoma
# SK-MEL-28 melanoma = tested on: SK-MEL-28 melanoma
# SK-MEL-5 melanoma = tested on: SK-MEL-5 melanoma
# SK-OV-3 ovarian = tested on: SK-OV-3 ovarian
# SN12C renal = tested on: SN12C renal
# SNB-19 CNS = tested on: SNB-19 CNS
# SNB-75 CNS = tested on: SNB-75 CNS
# SNB-78 CNS = tested on: SNB-78 CNS
# SR leukemia = tested on: SR leukemia
# SW-620 colon = tested on: SW-620 colon
# TK-10 renal = tested on: TK-10 renal
# U251 CNS = tested on: U251 CNS
# UACC-257 melanoma = tested on: UACC-257 melanoma
# UACC-62 melanoma = tested on: UACC-62 melanoma
# UO-31 renal = tested on: UO-31 renal
# XF 498 CNS = tested on: XF 498 CNS
# A498 renal = tested on: A498 renal
# CAKI-1 renal = tested on: CAKI-1 renal
# DMS 114 small cell lung = tested on: DMS 114 small cell lung
# HOP-62 NSCLC = tested on: HOP-62 NSCLC
# DU-145 prostate = tested on: DU-145 prostate
# HS 578T breast = tested on: HS 578T breast
# MDA-MB-231 breast = tested on: MDA-MB-231 breast
# NCI/ADR-RES ovarian = tested on: NCI/ADR-RES ovarian
# PC-3 prostate = tested on: PC-3 prostate
# T-47D breast = tested on: T-47D breast
compound,measurement,setting,value
COc1c(O)c2c3c(cc(C)cc3c1C(C)C)OC2,TGI,786-0 renal,> 100000 nM
same,TGI,A549 NSCLC,> 100000 nM
same,TGI,ACHN renal,> 100000 nM
same,TGI,CCRF-CEM leukemia,> 100000 nM
same,TGI,COLO 205 colon,> 100000 nM
same,TGI,DLD-1 colon,> 100000 nM
same,TGI,DMS 273 small cell lung,> 100000 nM
same,TGI,EKVX NSCLC,> 100000 nM
same,TGI,HCC-2998 colon,> 100000 nM
same,TGI,HCT-116 colon,> 100000 nM
same,TGI,HCT-15 colon,> 100000 nM
same,TGI,HL-60(TB) leukemia,> 100000 nM
same,TGI,HOP-18 NSCLC,> 100000 nM
same,TGI,HOP-92 NSCLC,> 100000 nM
same,TGI,HT29 colon,> 100000 nM
same,TGI,IGROV1 ovarian,> 100000 nM
same,TGI,K-562 leukemia,> 100000 nM
same,TGI,KM12 colon,> 100000 nM
same,TGI,KM20L2 colon,> 100000 nM
same,TGI,LOX IMVI melanoma,> 100000 nM
same,TGI,LXFL 529 NSCLC,> 100000 nM
same,TGI,M14 melanoma,> 100000 nM
same,TGI,M19-MEL melanoma,> 100000 nM
same,TGI,MALME-3M melanoma,> 100000 nM
same,TGI,MOLT-4 leukemia,> 100000 nM
same,TGI,NCI-H226 lung,> 100000 nM
same,TGI,NCI-H23 lung,> 100000 nM
same,TGI,NCI-H460 lung,> 100000 nM
same,TGI,NCI-H522 lung,> 100000 nM
same,TGI,OVCAR-3 ovarian,> 100000 nM
same,TGI,OVCAR-4 ovarian,> 100000 nM
same,TGI,OVCAR-5 ovarian,> 100000 nM
same,TGI,OVCAR-8 ovarian,> 100000 nM
same,TGI,RPMI-8226 leukemia,> 100000 nM
same,TGI,RXF 393 renal,> 100000 nM
same,TGI,SF-268 CNS,> 100000 nM
same,TGI,SF-295 CNS,> 100000 nM
same,TGI,SF-539 CNS,> 100000 nM
same,TGI,SK-MEL-2 melanoma,> 100000 nM
same,TGI,SK-MEL-28 melanoma,> 100000 nM
same,TGI,SK-MEL-5 melanoma,> 100000 nM
same,TGI,SK-OV-3 ovarian,> 100000 nM
same,TGI,SN12C renal,> 100000 nM
same,TGI,SNB-19 CNS,> 100000 nM
same,TGI,SNB-75 CNS,> 100000 nM
same,TGI,SNB-78 CNS,> 100000 nM
same,TGI,SR leukemia,> 100000 nM
same,TGI,SW-620 colon,> 100000 nM
same,TGI,TK-10 renal,> 100000 nM
same,TGI,U251 CNS,> 100000 nM
same,TGI,UACC-257 melanoma,> 100000 nM
same,TGI,UACC-62 melanoma,> 100000 nM
same,TGI,UO-31 renal,> 100000 nM
same,TGI,XF 498 CNS,> 100000 nM
O=[N+]([O-])c1ccc(-n2nnc(C3=NCCN3)c2-c2ccccc2)cc1,TGI,786-0 renal,> 100000 nM
same,TGI,A498 renal,> 100000 nM
same,TGI,A549 NSCLC,> 100000 nM
same,TGI,ACHN renal,> 100000 nM
same,TGI,CAKI-1 renal,> 100000 nM
same,TGI,CCRF-CEM leukemia,> 100000 nM
same,TGI,COLO 205 colon,> 100000 nM
same,TGI,DLD-1 colon,> 100000 nM
same,TGI,DMS 114 small cell lung,> 100000 nM
same,TGI,DMS 273 small cell lung,> 100000 nM
same,TGI,EKVX NSCLC,> 100000 nM
same,TGI,HCC-2998 colon,> 100000 nM
same,TGI,HCT-116 colon,> 100000 nM
same,TGI,HCT-15 colon,> 100000 nM
same,TGI,HL-60(TB) leukemia,> 100000 nM
same,TGI,HOP-18 NSCLC,> 100000 nM
same,TGI,HOP-62 NSCLC,> 100000 nM
same,TGI,HOP-92 NSCLC,> 100000 nM
same,TGI,HT29 colon,> 100000 nM
same,TGI,IGROV1 ovarian,> 100000 nM
same,TGI,K-562 leukemia,> 100000 nM
same,TGI,KM12 colon,> 100000 nM
same,TGI,KM20L2 colon,> 100000 nM
same,TGI,LOX IMVI melanoma,> 100000 nM
same,TGI,LXFL 529 NSCLC,> 100000 nM
same,TGI,M14 melanoma,> 100000 nM
same,TGI,M19-MEL melanoma,> 100000 nM
same,TGI,MALME-3M melanoma,> 100000 nM
same,TGI,MOLT-4 leukemia,> 100000 nM
same,TGI,NCI-H226 lung,> 100000 nM
same,TGI,NCI-H23 lung,> 100000 nM
same,TGI,NCI-H460 lung,> 100000 nM
same,TGI,NCI-H522 lung,> 100000 nM
same,TGI,OVCAR-3 ovarian,> 100000 nM
same,TGI,OVCAR-4 ovarian,> 100000 nM
same,TGI,OVCAR-5 ovarian,> 100000 nM
same,TGI,OVCAR-8 ovarian,> 100000 nM
same,TGI,RPMI-8226 leukemia,> 100000 nM
same,TGI,RXF 393 renal,> 100000 nM
same,TGI,SF-268 CNS,> 100000 nM
same,TGI,SF-295 CNS,> 100000 nM
same,TGI,SF-539 CNS,> 100000 nM
same,TGI,SK-MEL-2 melanoma,> 100000 nM
same,TGI,SK-MEL-28 melanoma,> 100000 nM
same,TGI,SK-MEL-5 melanoma,> 100000 nM
same,TGI,SK-OV-3 ovarian,> 100000 nM
same,TGI,SN12C renal,> 100000 nM
same,TGI,SNB-19 CNS,> 100000 nM
same,TGI,SNB-75 CNS,> 100000 nM
same,TGI,SNB-78 CNS,> 100000 nM
same,TGI,SR leukemia,> 100000 nM
same,TGI,SW-620 colon,> 100000 nM
same,TGI,TK-10 renal,> 100000 nM
same,TGI,U251 CNS,> 100000 nM
same,TGI,UACC-257 melanoma,> 100000 nM
same,TGI,UACC-62 melanoma,> 100000 nM
same,TGI,UO-31 renal,> 100000 nM
same,TGI,XF 498 CNS,> 100000 nM
CC[C@@]1(O)C(=O)OCc2c1cc1n(c2=O)Cc2cc3cc4c(cc3nc2-1)OCO4,TGI,786-0 renal,2.74 nM
same,GI50,A498 renal,1.37 nM
same,TGI,A498 renal,68.5 nM and 114 nM
same,TGI,A549 NSCLC,177 nM and 136 nM
same,TGI,CCRF-CEM leukemia,15.2 nM and < 41.4 nM
same,GI50,COLO 205 colon,< 34.1 nM
same,TGI,COLO 205 colon,710 nM
same,GI50,DLD-1 colon,112 nM
same,TGI,DLD-1 colon,> 100000 nM
same,TGI,DMS 114 small cell lung,27.3 nM and 39.8 nM
same,TGI,DMS 273 small cell lung,195 nM
same,TGI,DU-145 prostate,5.72 nM
same,GI50,EKVX NSCLC,415 nM
same,TGI,HCC-2998 colon,208 nM
same,GI50,HCT-116 colon,< 1 nM
same,TGI,HCT-116 colon,136 nM and 1270 nM
same,TGI,HCT-15 colon,> 58900 nM
same,GI50,HOP-18 NSCLC,< 1 nM
same,TGI,HOP-18 NSCLC,609 nM
same,TGI,HOP-92 NSCLC,166 nM and 51 nM
same,GI50,HS 578T breast,> 100000 nM
same,TGI,HS 578T breast,> 100000 nM
same,GI50,IGROV1 ovarian,< 34.1 nM
same,TGI,IGROV1 ovarian,187 nM
same,GI50,K-562 leukemia,< 11.4 nM
same,TGI,K-562 leukemia,> 100000 nM
same,GI50,KM12 colon,35.3 nM and < 18.8 nM
same,TGI,KM12 colon,369 nM
same,GI50,KM20L2 colon,56.9 nM
same,TGI,KM20L2 colon,> 100000 nM
same,GI50,LOX IMVI melanoma,< 1 nM
same,TGI,LOX IMVI melanoma,109 nM and 50.6 nM
same,TGI,LXFL 529 NSCLC,375 nM
same,TGI,M19-MEL melanoma,262 nM and 180 nM
same,GI50,MALME-3M melanoma,< 14.4 nM
same,TGI,MDA-MB-231 breast,> 100000 nM
same,TGI,MOLT-4 leukemia,1.37 nM
same,TGI,NCI-H226 lung,6.16 nM and < 38.7 nM
same,TGI,NCI-H460 lung,87.6 nM and 23.2 nM
same,TGI,NCI-H522 lung,113 nM
same,TGI,NCI/ADR-RES ovarian,> 100000 nM
same,GI50,OVCAR-3 ovarian,13.5 nM
same,TGI,OVCAR-3 ovarian,79.3 nM
same,TGI,OVCAR-5 ovarian,122 nM and 37.2 nM
same,TGI,OVCAR-8 ovarian,369 nM
same,TGI,PC-3 prostate,> 100000 nM
same,GI50,RXF 393 renal,< 26.7 nM
same,TGI,RXF 393 renal,83.1 nM
same,TGI,SF-295 CNS,25 nM
same,TGI,SF-539 CNS,1.3 nM
same,GI50,SK-MEL-2 melanoma,204 nM
same,TGI,SK-MEL-2 melanoma,173 nM and 997 nM
same,GI50,SK-MEL-28 melanoma,97.1 nM
same,TGI,SK-MEL-5 melanoma,72.1 nM and < 28.1 nM
same,GI50,SK-OV-3 ovarian,< 32.4 nM
same,TGI,SN12C renal,< 12.5 nM
same,TGI,SR leukemia,> 100000 nM
same,TGI,SW-620 colon,3180 nM
same,TGI,T-47D breast,427 nM
same,GI50,TK-10 renal,111 nM
same,TGI,TK-10 renal,2790 nM and 17300 nM
same,TGI,U251 CNS,17.1 nM and 61.3 nM
same,TGI,UACC-257 melanoma,345 nM and 259 nM
same,TGI,UACC-62 melanoma,7.17 nM
same,TGI,UO-31 renal,25.1 nM and < 15 nM
same,GI50,XF 498 CNS,114 nM
same,TGI,XF 498 CNS,461 nM and 657 nM
